Measurements from PMC4917448 (Journal of biomolecular screening, 2016).
“Also recorded” adds a separate entry of the source.

Tests used:
HDAC I/II [1] = assay: HDAC-Glo I/II assay in HCT116 cells; assay type: cell-based, human; details: for HDAC-Glo: Efficacy, HCT116 / Efficacy, HDAC-Glo I/II HCT116 assay: maximal response; for HDAC I/II inhibitory activity (in words): HCT116 and HEK293 cells, validation with epigenetics libraries; for HDAC activity inhibited, HDAC-Glo I/II: HCT116, qHTS primary screening of NPC library; for IC50, HDAC-Glo activity: HCT116, validation with epigenetics libraries, 0.7 nM-46 μM
HDAC I/II [2] = assay: HDAC-Glo I/II assay in human neural stem cells; assay type: cell-based; details: cherry-pick confirmation; for HDAC-Glo: Efficacy, hNSC: maximal response; for IC50: read-out: HDAC-Glo: IC50, hNSC, 11 concentrations, 1 hour; for inhibition of HDAC-Glo I/II luminescence signals: hNSCs, Figure 2
human neural stem cells = assay: CellTiter-Glo cell viability assay in hNSC; assay type: cell-based; details: cherry-pick confirmation, 1 hour
HCT116 cells = assay: CellTiter-Glo cell viability assay in HCT116; assay type: cell-based, human; details: cherry-pick confirmation, 1 hour
HDAC6 = molecular target: T1, HDAC6 (Homo sapiens, UniProt Q9UBN7); assay: Fluorogenic isoform-specific HDAC assay, HDAC6; assay type: biochemical; details: 20 μM
T1 sequence (Q9UBN7 1-1215): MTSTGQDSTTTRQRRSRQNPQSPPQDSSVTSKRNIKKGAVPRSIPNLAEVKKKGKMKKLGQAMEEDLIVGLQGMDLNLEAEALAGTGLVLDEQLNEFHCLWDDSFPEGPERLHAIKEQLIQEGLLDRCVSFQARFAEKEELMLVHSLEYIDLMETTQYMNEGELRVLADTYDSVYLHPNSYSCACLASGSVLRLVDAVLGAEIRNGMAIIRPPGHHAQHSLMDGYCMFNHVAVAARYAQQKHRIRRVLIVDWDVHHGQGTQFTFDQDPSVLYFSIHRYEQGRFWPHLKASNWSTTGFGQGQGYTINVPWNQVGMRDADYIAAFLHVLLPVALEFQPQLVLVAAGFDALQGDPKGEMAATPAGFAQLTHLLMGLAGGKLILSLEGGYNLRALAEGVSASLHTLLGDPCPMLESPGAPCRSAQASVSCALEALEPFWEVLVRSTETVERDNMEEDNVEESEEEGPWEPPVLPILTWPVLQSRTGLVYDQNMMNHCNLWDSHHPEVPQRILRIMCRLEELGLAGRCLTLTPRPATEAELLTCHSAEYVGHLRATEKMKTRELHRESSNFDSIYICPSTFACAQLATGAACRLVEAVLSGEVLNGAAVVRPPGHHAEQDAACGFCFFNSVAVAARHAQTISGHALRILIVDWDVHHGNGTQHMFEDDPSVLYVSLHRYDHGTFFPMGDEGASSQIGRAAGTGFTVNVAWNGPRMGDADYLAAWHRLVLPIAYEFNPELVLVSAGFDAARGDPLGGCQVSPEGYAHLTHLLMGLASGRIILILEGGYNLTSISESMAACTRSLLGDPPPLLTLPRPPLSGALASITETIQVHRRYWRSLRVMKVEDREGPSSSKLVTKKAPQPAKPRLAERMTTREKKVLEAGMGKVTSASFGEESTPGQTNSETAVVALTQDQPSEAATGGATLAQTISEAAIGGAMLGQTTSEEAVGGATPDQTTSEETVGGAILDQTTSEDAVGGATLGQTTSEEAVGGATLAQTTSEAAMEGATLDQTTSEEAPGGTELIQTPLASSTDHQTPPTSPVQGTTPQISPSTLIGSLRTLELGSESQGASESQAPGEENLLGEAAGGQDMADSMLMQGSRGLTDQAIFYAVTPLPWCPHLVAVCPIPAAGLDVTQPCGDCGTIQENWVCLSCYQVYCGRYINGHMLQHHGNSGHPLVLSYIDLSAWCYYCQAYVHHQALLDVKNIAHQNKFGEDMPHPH

HDAC3 = HDAC3 (Homo sapiens, UniProt O15379); assay: Fluorogenic isoform-specific HDAC assay, HDAC3; assay type: biochemical; details: 20 μM
[3] = tested on: class I and II HDAC enzymes; assay: Panel of fluorogenic assays against ten class I and II HDAC isoforms; assay type: biochemical, human; details: 20 μM; for inhibition of HDAC isoforms (in words): Figure 3
HDAC I/II [4] = assay: HDAC-Glo I/II assay in HEK293 cells; assay type: cell-based, human; details: HEK293, validation with epigenetics libraries, 0.7 nM-46 μM
[5] = read-out: HDAC-Glo: IC50, HCT116, cherry-pick confirmation, 11 concentrations, 1 hour
[6] = read-out: IC50, HDAC-Glo I/II HCT116 assay, powder confirmation

Sequence of HDAC3 (O15379 whole entry, canonical isoform): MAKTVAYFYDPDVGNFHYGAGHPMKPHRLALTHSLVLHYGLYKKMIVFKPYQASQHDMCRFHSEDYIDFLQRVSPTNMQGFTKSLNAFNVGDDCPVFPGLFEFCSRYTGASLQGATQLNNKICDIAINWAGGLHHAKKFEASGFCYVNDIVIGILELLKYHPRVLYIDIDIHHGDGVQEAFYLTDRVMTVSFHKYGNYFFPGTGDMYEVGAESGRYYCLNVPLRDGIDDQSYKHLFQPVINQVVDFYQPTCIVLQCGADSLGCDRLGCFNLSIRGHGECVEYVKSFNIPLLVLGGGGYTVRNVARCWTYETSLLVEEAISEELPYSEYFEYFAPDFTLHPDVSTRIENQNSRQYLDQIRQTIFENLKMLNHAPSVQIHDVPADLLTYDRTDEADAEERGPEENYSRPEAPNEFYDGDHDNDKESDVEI
Sequence of HDAC3 (Q9Y618 395-489 partner limits assumed): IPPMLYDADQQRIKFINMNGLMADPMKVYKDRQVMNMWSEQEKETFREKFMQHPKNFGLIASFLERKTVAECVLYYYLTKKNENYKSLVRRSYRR

Row | Compound | HDAC-Glo: Efficacy, HCT116 (HDAC I/II [1]; cherry-pick confirmation) | IC50 (HDAC I/II [1]; [5]) | HDAC-Glo: Efficacy, hNSC (HDAC I/II [2]) | IC50 (HDAC I/II [2]) | Viability: IC50, hNSC (human neural stem cells) | Viability: IC50, HCT116 (HCT116 cells) | Efficacy, HDAC-Glo I/II HCT116 assay (HDAC I/II [1]; powder confirmation) | IC50 (HDAC I/II [1]; [6]) | further results
1 | CC(C)[C@H](C(=O)Nc1ccc(C(=O)NO)cc1)c1ccccc1 [AR-42] | 113 ± 2% | 940 ± 110 nM | 115 ± 5% | 760 ± 170 nM | Inactive | Inactive | – | – | –
2 | CC(C)c1ccc2oc3nc(N)c(C(=O)O)cc3c(=O)c2c1 [Amlexanox] | 110 ± 2% | 1090 ± 70 nM | 96 ± 7% | 1100 ± 140 nM | Inactive | Inactive | 98 ± 0% | 1650 ± 360 nM | –
3 | CNC(=O)c1ccccc1Sc1ccc2c(/C=C/c3ccccn3)n[nH]c2c1 [Axitinib] | 2.97 ± 0.34 (105 ± 3) % | – | 6.65 ± 0.76 (106 ± 4) % | – | – | – | – | – | inhibition of HDAC6 (in words) (HDAC6): inhibited HDADC6 the most
4 | CN(C)C(=O)COC(=O)Cc1ccc(OC(=O)c2ccc(NC(=N)N)cc2)cc1 [Camostat] | 109 ± 4% | 1940 ± 660 nM | 102 ± 3% | 950 ± 200 nM | Inactive | Inactive | – | – | inhibition of HDAC-Glo I/II luminescence signals (HDAC I/II [2]): completely inhibited
5 | O=C(Oc1ccccc1)c1cccc(C(=O)Oc2ccccc2)c1 [Diphenyl isophthalate] | 112 ± 5% | 3870 ± 810 nM | 103 ± 3% | 2240 ± 150 nM | Inactive | Inactive | 97 ± 0% | 5280 ± 630 nM | inhibition of HDAC3 (in words) (HDAC3): selectively inhibited
6 | Cc1nc(-c2ccc(OCC(C)C)c(C#N)c2)sc1C(=O)O [Febuxostat] | 127 ± 5% | 2380 ± 440 nM | 116 ± 3% | 2160 ± 600 nM | Inactive | Inactive | 96 ± 1% | 2430 ± 270 nM | inhibition of HDAC3 (in words) (HDAC3): selectively inhibited; also recorded: selective to HDAC3
7 | C[C@@H]1NC(=O)[C@H]2CCCN2C(=O)[C@H](CCCCCC(=O)[C@@H]2CO2)NC(=O)[C@@H](C)NC1=O [HC Toxin] | – | – | – | – | – | – | – | – | HDAC I/II inhibitory activity (in words) (HDAC I/II [1]): identified
8 | CC(C)(C)OC(=O)Nc1ccc(-c2cc(C(=O)NCCCCCCC(=O)NO)no2)cc1 [ISOX] | 124 ± 5% | 2320 ± 650 nM | 118 ± 6% | 1960 ± 350 nM | Inactive | Inactive | – | – | –
9 | O=C(/C=C/c1ccc(O)cc1)c1ccc(O)cc1O [Isoliquiritigenin] | 110 ± 3% | 1670 ± 190 nM | 117 ± 5% | 2020 ± 130 nM | Inactive | Inactive | 97 ± 0% | 2360 ± 110 nM | inhibition of HDAC isoforms (in words) [3]: weakly inhibited many class I and II HDAC enzymes
10 | Cc1oncc1C(=O)Nc1ccc(C(F)(F)F)cc1 [Leflunomide] | 118 ± 11% | 9480 ± 1980 nM | 106 ± 2% | 5900 nM | Inactive | Inactive | 92 ± 0% | 5610 ± 120 nM | inhibition of HDAC3 (in words) (HDAC3): selectively inhibited
11 | O=C(Nc1ccc([N+](=O)[O-])cc1Cl)c1cc(Cl)ccc1O [Niclosamide] | 112 ± 2% | 2380 ± 160 nM | 102 ± 4% | 1400 ± 240 nM | Inactive | Inactive | 98 ± 1% | 2080 ± 170 nM | –
12 | CCCCc1nc2cc(/C=C/C(=O)NO)ccc2n1CCN(CC)CC [Pracinostat] | 114 ± 4% | 350 ± 60 nM | 112 ± 5% | 270 ± 60 nM | Inactive | Inactive | – | – | –
13 | Nc1cc(F)ccc1NC(=O)/C=C/c1cnn(C/C=C/c2ccccc2)c1 [RGFP966] | – | – | – | – | – | – | – | – | HDAC I/II inhibitory activity (in words) (HDAC I/II [1]): identified
14 | Oc1ccc(/C=C/c2cc(O)cc(O)c2)cc1 [Resveratrol] | 97 ± 13% | 11000 ± 1980 nM | 102 ± 4% | 7430 nM | Inactive | Inactive | 69 ± 2% | 18200 ± 2050 nM | HDAC I/II inhibitory activity (in words) (HDAC I/II [1]): identified; inhibition of HDAC-Glo I/II luminescence signals (HDAC I/II [2]): completely inhibited
15 | O=C(CCCCCN1C(=O)c2cccc3cccc(c23)C1=O)NO [Scriptaid] | 123 ± 3% | 1870 ± 220 nM | 113 ± 6% | 1190 ± 250 nM | Inactive | Inactive | 93 ± 1% | 1760 ± 240 nM | inhibition against all class I and II HDAC enzymes [3]: over 80%; inhibition of HDAC isoforms (in words) [3]: inhibited activities of all isoforms
16 | O=C(CCCCCCC(=O)Nc1ccccc1)NO [Vorinostat, suberoylanilide hydroxamic acid] | 0.77 ± 0.05 (119 ± 6) % | – | 101 ± 2% | 660 ± 80 nM | Inactive | Inactive | 0.45 ± 0.04 (99 ± 0) % | – | –
17 | CCC[S+]([O-])c1ccc2[nH]c(NC(=O)OC)nc2c1 (stereo not shown) [albendazole oxide] | – | – | – | – | – | – | – | – | HDAC activity inhibited, HDAC-Glo I/II (HDAC I/II [1]): more than half
18 | CCCSc1ccc2nc(NC(=O)OC)[nH]c2c1 [albendazole] | – | – | – | – | – | – | – | – | HDAC activity inhibited, HDAC-Glo I/II (HDAC I/II [1]): more than half
19 | CCC(=O)CCCCC[C@@H]1NC(=O)[C@H]2CCCCN2C(=O)[C@H]([C@@H](C)CC)NC(=O)[C@H](Cc2cn(OC)c3ccccc23)NC1=O [apicidin] | – | – | – | – | – | – | – | – | HDAC I/II inhibitory activity (in words) (HDAC I/II [1]): identified
20 | Nc1cc(F)ccc1NC(=O)c1ccc(CNC(=O)/C=C/c2cccnc2)cc1 [chidamide] | – | – | – | – | – | – | – | – | HDAC I/II inhibitory activity (in words) (HDAC I/II [1]): identified
21 | Nc1ccccc1NC(=O)c1ccc(CNC(=O)OCc2cccnc2)cc1 [entinostat] | – | – | – | – | – | – | – | – | HDAC I/II inhibitory activity (in words) (HDAC I/II [1]): identified
22 | CCCC(=O)[O-].[Na+] [sodium butyrate] | – | – | – | – | – | – | – | – | IC50, HDAC-Glo activity (HDAC I/II [1]): did not show concentration-dependent inhibition; IC50, HDAC-Glo activity (HDAC I/II [4]): did not show concentration-dependent inhibition
23 | O=C(O)CCCc1ccccc1 [sodium phenylbutyrate] | – | – | – | – | – | – | – | – | IC50, HDAC-Glo activity (HDAC I/II [1]): did not show concentration-dependent inhibition; IC50, HDAC-Glo activity (HDAC I/II [4]): did not show concentration-dependent inhibition
24 | c1ccc2[nH]c(-c3cscn3)nc2c1 [thiabendazole] | – | – | – | – | – | – | – | – | HDAC activity inhibited, HDAC-Glo I/II (HDAC I/II [1]): more than half
25 | CCCC(CCC)C(=O)O [valproic acid] | – | – | – | – | – | – | – | – | IC50, HDAC-Glo activity (HDAC I/II [1]): did not show concentration-dependent inhibition; IC50, HDAC-Glo activity (HDAC I/II [4]): did not show concentration-dependent inhibition
26 | selisistat [selisistat (EX-527)] | – | – | – | – | – | – | – | – | average IC50, HDAC-Glo I/II, assay selectivity (HDAC I/II [1]; HCT116, Figure 1C): inactive
